Assay [1] has as its system cutaneous Herpes simplex virus type 1. Kind of assay: Topical treatment of cutaneous Herpes simplex virus type 1 lesions on guinea pig back, final score (Table 1). The class given is in vivo, guinea pigs. To be noted: vehicle R, 2.5 % conc., lesions scored 0 to 4+. As to the method: Three epilated areas on each guinea pig back were inoculated with approximately 1×10^5 plaque forming units of virus using a Sterneedle triggered 10 times for each area. Untreated guinea pigs so inoculated developed consistent rosette lesions in about 96 hours. All three areas on the back of each guinea pig were drug-treated and these compared with separate control animals which were treated with the particular vehicle employed for administering the drug. The positive control animals were treated with 0.5-1.0 percent phosphonoacetic acid (PAA) suspended in the same vehicle as the drug. Animals were inoculated on the morning of day 1 and treated on the afternoon of day 1. Two treatments per day were administered through day 5 for a total of 10 treatments. Hair was again epilated on day 5 and readings were begun then and taken daily through day 10. Lesions for each area were scored from 0 to 4+, which was a fully developed herpatic lesion with inflammation vesicles and pustules. An average score was then calculated for each drug for each day for the number of treated areas and control areas. Usually 3-6 guinea pigs were used per drug. After scoring, a final score or mean of means was calculated for drug-treated and for control areas. Table I which follows gives the results of determinations carried out as outlined above on compounds coming within the scope of this invention. In the table, column 1 gives the name of the drugs, column 2, the vehicle, column 3, the concentration; column 4, the number of animals used; and columns 5, the final score.

A further assay has as its system Herpes simplex virus. Kind of assay: In vitro plaque inhibition of Herpes simplex virus in BSC-1 or Hela cells (Table 3). The class given is cell-based. To be noted: 72 hours at 37° C. The protocol: The compounds of this invention also have anti-viral activity in vitro against Herpes simplex virus.
African green monkey kidney cells (BSC-1) or Hela cells (5-3) were grown in 25 cc. Falcon flasks at 37° C. in medium 199 with 5 percent inactivated fetal bovine serum (FBS), penicillin (150 units 1 ml.) and streptomycin (150 mcg./ml.). When confluent monolayers were formed, the supernatant growth medium was removed and 0.3 ml. of an appropriate dilution of Herpes simplex virus was added to each flask. After adsorption for one hour at room temperature, the virus infected cell sheet was overlaid with a medium comprising one part of 1 percent Ionagar No. 2 and one part double strength medium 199 with FCS, (fetal calf serum) penicillin, and streptomycin and also containing drug at concentrations of 100, 50, 25, 12, 6 and 3 micrograms per milliliter (mcg./ml.). The flask containing no drug served as a control. The stock solutions of 2,3-dihydroimidazo[1,2-c]pyrimidine compounds were made up in dimethylsulfoxide dilution at a concentration of 10^4 mcg./ml. The flasks were incubated for 72 hours at 37° C. […] A solution of 10 percent formalin and 2 percent sodium acetate was added to each flask to inactivate the virus and fix the cell sheet to the surface of the flask. The virus plaques, irrespective of size, were counted after staining the surrounding cell areas with crystal violet. The plaque count was compared to the control count at each drug concentration. The activity of the test compound was expressed as percentage plaque inhibition. Table 3, which follows, embodies the results of these determinations. In the table, column 1 gives the name of the compound, columns 2 through 6, the percent inhibition of herpes simplex plaques at various mcg./ml. levels of drug.

Assay [2] concerns Herpes simplex virus type I and Herpes simplex virus type II. Put plainly: Intravaginal treatment of Herpes simplex virus type I and type II infection in guinea pigs, final score (Table 2). The class given is in vivo. To be noted: 2.5 % conc., top score +16. As to the method:
A second in-vivo test against Herpes simplex virus type I and Herpes simplex virus type II was carried out as follows. Guinea pigs were inoculated intravaginally by swabing the vagina with an absorbent cotton swab containing 2×10^4 plaque forming units of the virus. Prior to the inoculation with the virus, the vagina was swabbed with physiological saline to remove potential virus inhibitors. Treatment was started four hours after inoculation and continued for four days. The drug in a suitable base was introduced into the vaginal area also with an absorbent cotton swab. Controls in which the vehicle only were swabbed were included. Beginning on day 5 after inoculation and continuing through day 10, each animal was examined and scored from 0 to 4+ for secretion, inflammation, vesiculation and necrosis, thus yielding a possible top score of +16 per guinea pig. In the table, column 1 gives the name of the compound; column 2, the vehicle; column 3, the concentration; column 4, the number of animals used; and columns 5, the final score.

Consider one compound from patent US4153695A, “Substituted 2,3-dihydro imidazo[1,2-c]pyrimidines” (priority 1978, dated 1979).

In the case of `CSC1=NC(Cl)=CC2=NCCN21.Cl` [5-Methylthio-7-chloro-2,3-dihydroimidazo[1,2-c]pyrimidine hydrochloride], the “Final Score” value in assay [1] is reported as 2.00; in assay [2] (vehicle D), 3.81; in assay [2] (vehicle R), “.92”. Further, the “PERCENT INHIBITION OF PLAQUES AT 6 mcg/ml” value in the assay with Herpes simplex virus (6 mcg/ml, hydrochloride) is 48%. Besides, the inhibition at 3 µg/mL in the assay with Herpes simplex virus (72 h, 3 mcg/ml, read-out: PERCENT INHIBITION OF PLAQUES AT 3 mcg/ml) came to 30%. For the same compound, in the assay with Herpes simplex virus (72 h, 6 mcg/ml, read-out: PERCENT INHIBITION OF PLAQUES AT 6 mcg/ml), the inhibition at 6 µg/mL turned out to be 49%. The inhibition at 12 µg/mL with Herpes simplex virus (72 h, 12 mcg/ml, read-out: PERCENT INHIBITION OF PLAQUES AT 12 mcg/ml) was 100%.
